Test results from article PMC5218480 (PLoS ONE, 2017).

Tested on: MV-4-11 cells
Assay: Gene expression microarray analysis (Affymetrix PrimeView) and GSEA
Format: cell-based, human
Design: RFU PODN (11730768_x_at) / Fold change /veh PODN (11730768_x_at) / RFU LINC00158 (11744669_a_at) / Fold change /veh LINC00158 (11744669_a_at) / RFU DUSP10 (11751237_a_at) / Fold change /veh DUSP10 (11751237_a_at) / RFU ID3 (11757404_x_at) / Fold change /veh ID3 (11757404_x_at) / RFU PLEKHG5 (11737974_s_at) / Fold change /veh PLEKHG5 (11737974_s_at) / RFU LRRC4B (11730491_at) / Fold change /veh LRRC4B (11730491_at) / RFU GIMAP4 (11747438_a_at) / Fold change /veh GIMAP4 (11747438_a_at) / RFU KRT8 (11758183_x_at) / Fold change /veh KRT8 (11758183_x_at) / RFU CNN1 (11734310_a_at) / Fold change /veh CNN1 (11734310_a_at) / RFU VPS37D (11726825_at) / Fold change /veh VPS37D (11726825_at) / RFU C10orf10 (11716522_x_at) / Fold change /veh C10orf10 (11716522_x_at) / RFU KIR2DL2 /// KIR2DL4 /// KIR2DL5A /// KIR2DL5B /// KIR2DS1 /// KIR2DS2 /// KIR2DS3 /// KIR2DS4 /// KIR3DL3 /// KIR3DL3 /// KIR3DS1 (11738374_at) / Fold change /veh KIR2DL2 /// KIR2DL4 /// KIR2DL5A /// KIR2DL5B /// KIR2DS1 /// KIR2DS2 /// KIR2DS3 /// KIR2DS4 /// KIR3DL3 /// KIR3DL3 /// KIR3DS1 (11738374_at) / RFU C1QL1 (11718748_at) / Fold change /veh C1QL1 (11718748_at) / RFU TMPRSS4 (11747572_a_at) / Fold change /veh TMPRSS4 (11747572_a_at) / RFU HAMP (11756126_x_at) / Fold change /veh HAMP (11756126_x_at) / RFU RNFT2 (11725882_a_at) / Fold change /veh RNFT2 (11725882_a_at) / RFU NR4A2 (11747474_a_at) / Fold change /veh NR4A2 (11747474_a_at) / RFU ABCC12 (11746883_a_at) / Fold change /veh ABCC12 (11746883_a_at) / RFU TMEM136 (11760407_x_at) / Fold change /veh TMEM136 (11760407_x_at) / RFU CLDN22 /// WWC2 (11732394_at) / Fold change /veh CLDN22 /// WWC2 (11732394_at) / RFU HLA-DPB1 (11760878_x_at) / Fold change /veh HLA-DPB1 (11760878_x_at) / RFU SPINT1 (11716480_a_at) / Fold change /veh SPINT1 (11716480_a_at) / RFU GAP43 (11754022_s_at) / Fold change /veh GAP43 (11754022_s_at) / RFU A4GNT (11735810_at) / Fold change /veh A4GNT (11735810_at) / RFU PRB3 (11715151_x_at) / Fold change /veh PRB3 (11715151_x_at) / RFU TUBB4B (11761932_at) / Fold change /veh TUBB4B (11761932_at) / RFU CAPN14 (11732068_a_at) / Fold change /veh CAPN14 (11732068_a_at) / RFU TMCC2 (11721928_a_at) / Fold change /veh TMCC2 (11721928_a_at) / RFU IRGQ (11745062_a_at) / Fold change /veh IRGQ (11745062_a_at) / RFU FAM174B (11720279_a_at) / Fold change /veh FAM174B (11720279_a_at) / RFU TMPRSS4 (11748680_a_at) / Fold change /veh TMPRSS4 (11748680_a_at) / RFU FAM212B (11763350_a_at) / Fold change /veh FAM212B (11763350_a_at) / RFU PLEKHG5 (11743358_a_at) / Fold change /veh PLEKHG5 (11743358_a_at) / RFU ZSCAN30 (11745921_a_at) / Fold change /veh ZSCAN30 (11745921_a_at) / RFU CMKLR1 (11741424_a_at) / Fold change /veh CMKLR1 (11741424_a_at) / RFU LOC101060620 /// MAPK8IP1 (11723275_at) / Fold change /veh LOC101060620 /// MAPK8IP1 (11723275_at) / RFU SPTSSB (11747773_x_at) / Fold change /veh SPTSSB (11747773_x_at) / RFU PRSS12 (11739890_at) / Fold change /veh PRSS12 (11739890_at) / RFU BIN1 (11741810_x_at) / Fold change /veh BIN1 (11741810_x_at) / RFU WNT11 (11732464_a_at) / Fold change /veh WNT11 (11732464_a_at) / RFU C10orf10 (11716521_a_at) / Fold change /veh C10orf10 (11716521_a_at) / RFU C5orf56 (11738089_at) / Fold change /veh C5orf56 (11738089_at) / RFU CYB561 (11721691_x_at) / Fold change /veh CYB561 (11721691_x_at) / RFU ANKRD19P (11752326_a_at) / Fold change /veh ANKRD19P (11752326_a_at) / RFU OR2T12 /// OR2T33 /// OR2T8 (11738714_s_at) / Fold change /veh OR2T12 /// OR2T33 /// OR2T8 (11738714_s_at) / RFU VCAN (11748164_a_at) / Fold change /veh VCAN (11748164_a_at) / RFU JSRP1 (11732532_at) / Fold change /veh JSRP1 (11732532_at) / RFU KRTAP10-11 (11738290_x_at) / Fold change /veh KRTAP10-11 (11738290_x_at) / RFU MYO3A (11730013_a_at) / Fold change /veh MYO3A (11730013_a_at) / RFU EBF3 (11725865_a_at) / Fold change /veh EBF3 (11725865_a_at) / RFU CAMK2N1 (11719241_x_at) / Fold change /veh CAMK2N1 (11719241_x_at) / RFU C5orf56 (11738088_a_at) / Fold change /veh C5orf56 (11738088_a_at) / RFU OLFML3 (11715873_a_at) / Fold change /veh OLFML3 (11715873_a_at) / RFU LOC100653217 /// NTM (11731650_a_at) / Fold change /veh LOC100653217 /// NTM (11731650_a_at) / RFU MAPK11 (11762145_a_at) / Fold change /veh MAPK11 (11762145_a_at) / RFU FIZ1 (11724087_x_at) / Fold change /veh FIZ1 (11724087_x_at) / RFU OASL (11726364_x_at) / Fold change /veh OASL (11726364_x_at) / RFU SOX15 (11748057_x_at) / Fold change /veh SOX15 (11748057_x_at) / RFU CD79A (11719716_a_at) / Fold change /veh CD79A (11719716_a_at) / RFU HIST1H1D (11736915_at) / Fold change /veh HIST1H1D (11736915_at) / RFU CASKIN2 (11723855_a_at) / Fold change /veh CASKIN2 (11723855_a_at) / RFU LOC730098 (11760151_x_at) / Fold change /veh LOC730098 (11760151_x_at) / RFU OR4N2 (11742367_at) / Fold change /veh OR4N2 (11742367_at) / RFU PRRT2 (11749266_a_at) / Fold change /veh PRRT2 (11749266_a_at) / RFU SNX32 (11753110_a_at) / Fold change /veh SNX32 (11753110_a_at) / RFU CDHR5 (11726645_a_at) / Fold change /veh CDHR5 (11726645_a_at) / RFU RCAN1 (11760418_a_at) / Fold change /veh RCAN1 (11760418_a_at) / RFU FAM167A (11723789_a_at) / Fold change /veh FAM167A (11723789_a_at) / RFU FAM26E (11764081_at) / Fold change /veh FAM26E (11764081_at) / RFU ISYNA1 (11749810_s_at) / Fold change /veh ISYNA1 (11749810_s_at) / RFU ACY1 (11761880_at) / Fold change /veh ACY1 (11761880_at) / RFU 11764098_at / Fold change /veh 11764098_at / RFU SAMD14 (11745864_x_at) / Fold change /veh SAMD14 (11745864_x_at) / RFU NPB (11741838_a_at) / Fold change /veh NPB (11741838_a_at) / RFU TMPRSS6 (11731388_a_at) / Fold change /veh TMPRSS6 (11731388_a_at) / RFU KRTAP10-2 (11738614_at) / Fold change /veh KRTAP10-2 (11738614_at) / RFU ARHGAP8 /// PRR5-ARHGAP8 (11727945_x_at) / Fold change /veh ARHGAP8 /// PRR5-ARHGAP8 (11727945_x_at) / RFU KRTAP5-7 /// NADSYN1 (11734609_at) / Fold change /veh KRTAP5-7 /// NADSYN1 (11734609_at) / RFU RASL12 (11751679_a_at) / Fold change /veh RASL12 (11751679_a_at) / RFU CDKN2B (11736163_a_at) / Fold change /veh CDKN2B (11736163_a_at) / RFU PRF1 (11729649_at) / Fold change /veh PRF1 (11729649_at) / RFU, ZNF638 /// ZNF638-IT1 / Fold change vs veh, ZNF638 /// ZNF638-IT1 / RFU, PANK3 / Fold change vs veh, PANK3 / RFU, SH3YL1 / Fold change vs veh, SH3YL1 / RFU, ZEB2 / Fold change vs veh, ZEB2 / RFU, NRIP1 / Fold change vs veh, NRIP1 / RFU, PTTG1IP / Fold change vs veh, PTTG1IP / RFU, CAPN2 / Fold change vs veh, CAPN2 / RFU, MED14 / Fold change vs veh, MED14 / RFU, SNORA58 / Fold change vs veh, SNORA58 / RFU, C1orf63 / Fold change vs veh, C1orf63 / RFU, LRRFIP1 / Fold change vs veh, LRRFIP1 / RFU, NDUFAF7 / Fold change vs veh, NDUFAF7 / RFU, SLC12A2 / Fold change vs veh, SLC12A2 / RFU, IBTK / Fold change vs veh, IBTK / RFU, ESF1 / Fold change vs veh, ESF1 / Fold change vs veh, TMEM50B / RFU, TAOK1 / Fold change vs veh, TAOK1 / RFU, ACBD3 / Fold change vs veh, ACBD3 / RFU, TMA16 / Fold change vs veh, TMA16 / RFU, RWDD3 / Fold change vs veh, RWDD3 / RFU, BCAT1 / Fold change vs veh, BCAT1 / RFU, EDEM3 / Fold change vs veh, EDEM3 / RFU, TMEM33 / Fold change vs veh, TMEM33 / RFU, WDR75 / Fold change vs veh, WDR75 / RFU, AHCTF1 / Fold change vs veh, AHCTF1 / RFU, TFRC / Fold change vs veh, TFRC / RFU, ZDHHC17 / Fold change vs veh, ZDHHC17 / RFU, NOM1 / Fold change vs veh, NOM1 / RFU, ARL8B / Fold change vs veh, ARL8B / RFU, ZBTB11 / Fold change vs veh, ZBTB11 / RFU, TAMM41 / Fold change vs veh, TAMM41 / RFU, KIAA1704 /// LOC100996395 / Fold change vs veh, KIAA1704 /// LOC100996395 / RFU, ING1 / Fold change vs veh, ING1 / RFU, TRMT61B / Fold change vs veh, TRMT61B / RFU, FUBP3 / Fold change vs veh, FUBP3 / RFU, TP53 / Fold change vs veh, TP53 / RFU, TNKS2 / Fold change vs veh, TNKS2 / RFU, ZFP14 / Fold change vs veh, ZFP14 / RFU, ACTR2 / Fold change vs veh, ACTR2 / RFU, PPP3R1 / Fold change vs veh, PPP3R1 / RFU, PIK3R1 / Fold change vs veh, PIK3R1 / RFU, HNRNPA1 / Fold change vs veh, HNRNPA1 / RFU, RNF170 / Fold change vs veh, RNF170 / RFU, ZNF28 / Fold change vs veh, ZNF28 / RFU, RNGTT / Fold change vs veh, RNGTT / RFU, OGT / Fold change vs veh, OGT / RFU, BRD1 / Fold change vs veh, BRD1 / RFU, MARS / Fold change vs veh, MARS / RFU, ZNF655 / Fold change vs veh, ZNF655 / RFU, FAHD1 / Fold change vs veh, FAHD1 / RFU, BDP1 / Fold change vs veh, BDP1 / RFU, LRRCC1 / Fold change vs veh, LRRCC1 / RFU, ARID1A / Fold change vs veh, ARID1A / RFU, ZNF146 / Fold change vs veh, ZNF146 / RFU, ZNF330 / Fold change vs veh, ZNF330 / RFU, GPN3 / Fold change vs veh, GPN3 / RFU, C9orf123 / Fold change vs veh, C9orf123 / RFU, N4BP2L2 / Fold change vs veh, N4BP2L2 / RFU, ARFIP1 / Fold change vs veh, ARFIP1 / RFU, FAM179B / Fold change vs veh, FAM179B / RFU, BCL10 / Fold change vs veh, BCL10 / RFU, UHRF1BP1L / Fold change vs veh, UHRF1BP1L / RFU, BET1 / Fold change vs veh, BET1 / RFU, CNOT2 / Fold change vs veh, CNOT2 / RFU, ZNF268 / Fold change vs veh, ZNF268 / Fold change vs veh, ZNF507 / RFU, DGCR2 / Fold change vs veh, DGCR2 / RFU, WDSUB1 / Fold change vs veh, WDSUB1 / Fold change vs veh, HSP90B1 /// MIR3652 / RFU, ADSS / Fold change vs veh, ADSS / RFU, GK / Fold change vs veh, GK / RFU, ZNF148 / Fold change vs veh, ZNF148 / RFU, TAF9 / Fold change vs veh, TAF9 / RFU, SLC1A5 / Fold change vs veh, SLC1A5 / RFU, SLMO2 / Fold change vs veh, SLMO2 / RFU, ABCC4 / Fold change vs veh, ABCC4 / RFU, LOC101060439 /// RAP1B / Fold change vs veh, LOC101060439 /// RAP1B / RFU, RFX7 / Fold change vs veh, RFX7 / RFU, GTPBP10 / Fold change vs veh, GTPBP10 / RFU, CNEP1R1 / Fold change vs veh, CNEP1R1 / RFU, BIVM-ERCC5 /// ERCC5 / Fold change vs veh, BIVM-ERCC5 /// ERCC5 / RFU, ILF3 / Fold change vs veh, ILF3 / RFU 11762660_at / Fold change /veh 11762660_at / RFU VCAN (11757783_s_at) / Fold change /veh VCAN (11757783_s_at) / RFU DDX43 (11728927_at) / Fold change /veh DDX43 (11728927_at) / RFU KRT8 (11758188_x_at) / Fold change /veh KRT8 (11758188_x_at) / RFU NKD1 (11759106_at) / Fold change /veh NKD1 (11759106_at) / RFU SRD5A1 (11742802_a_at) / Fold change /veh SRD5A1 (11742802_a_at) / RFU TPSAB1 /// TPSB2 (11721975_s_at) / Fold change /veh TPSAB1 /// TPSB2 (11721975_s_at) / RFU GSTM3 (11746129_a_at) / Fold change /veh GSTM3 (11746129_a_at) / RFU IL23R (11737362_x_at) / Fold change /veh IL23R (11737362_x_at) / RFU TMEM51 (11727254_a_at) / Fold change /veh TMEM51 (11727254_a_at) / RFU PIWIL2 (11732686_x_at) / Fold change /veh PIWIL2 (11732686_x_at) / RFU ORM1 (11744905_x_at) / Fold change /veh ORM1 (11744905_x_at) / RFU CCDC152 (11743942_at) / Fold change /veh CCDC152 (11743942_at) / RFU ECM1 (11717891_a_at) / Fold change /veh ECM1 (11717891_a_at) / RFU IL23R (11748794_a_at) / Fold change /veh IL23R (11748794_a_at) / RFU TNFAIP8L3 (11732012_x_at) / Fold change /veh TNFAIP8L3 (11732012_x_at) / RFU MBOAT4 (11741988_at) / Fold change /veh MBOAT4 (11741988_at) / RFU 11764193_at / Fold change /veh 11764193_at / RFU TMEM53 (11763286_at) / Fold change /veh TMEM53 (11763286_at) / RFU MAGEB2 (11727129_at) / Fold change /veh MAGEB2 (11727129_at) / RFU TMEM200A (11744735_a_at) / Fold change /veh TMEM200A (11744735_a_at) / RFU CCDC152 (11751479_a_at) / Fold change /veh CCDC152 (11751479_a_at) / RFU FAM211A (11726209_a_at) / Fold change /veh FAM211A (11726209_a_at) / RFU RGS16 (11746705_a_at) / Fold change /veh RGS16 (11746705_a_at) / RFU VCAN (11755009_s_at) / Fold change /veh VCAN (11755009_s_at) / RFU RHOB (11743442_s_at) / Fold change /veh RHOB (11743442_s_at) / RFU RGS16 (11720943_a_at) / Fold change /veh RGS16 (11720943_a_at) / RFU RGS16 (11720944_at) / Fold change /veh RGS16 (11720944_at) / RFU, VPS4B / Fold change vs veh, VPS4B / RFU, CREB1 / Fold change vs veh, CREB1 / RFU, DNAJC13 / Fold change vs veh, DNAJC13 / RFU, GNAQ / Fold change vs veh, GNAQ / RFU, CDK5R1 / Fold change vs veh, CDK5R1 / RFU, ZRANB3 / Fold change vs veh, ZRANB3 / RFU, CUL4A / Fold change vs veh, CUL4A / RFU, CCNY / Fold change vs veh, CCNY / RFU, UFL1 / Fold change vs veh, UFL1 / RFU, COG3 / Fold change vs veh, COG3 / RFU, DIAPH2 / Fold change vs veh, DIAPH2 / RFU, SKA2 / Fold change vs veh, SKA2 / RFU, AFF3 / Fold change vs veh, AFF3 / RFU, LMF1 / Fold change vs veh, LMF1 / RFU, IPO11 / Fold change vs veh, IPO11 / RFU, DFFB / Fold change vs veh, DFFB / RFU, FOXP1 / Fold change vs veh, FOXP1 / RFU, CARD8 / Fold change vs veh, CARD8 / RFU, STRN3 / Fold change vs veh, STRN3 / RFU, ADK / Fold change vs veh, ADK / RFU, RASSF2 / Fold change vs veh, RASSF2 / RFU, WIPF1 / Fold change vs veh, WIPF1 / RFU, LARP1B / Fold change vs veh, LARP1B / RFU, RASA1 / Fold change vs veh, RASA1 / RFU, RB1 / Fold change vs veh, RB1 / RFU, PPFIA1 / Fold change vs veh, PPFIA1 / RFU, MAT2A / Fold change vs veh, MAT2A / RFU, CCT5 / Fold change vs veh, CCT5 / RFU, WDR92 / Fold change vs veh, WDR92 / RFU, CUX1 / Fold change vs veh, CUX1 / RFU, TTC7A / Fold change vs veh, TTC7A / RFU, TMEM135 / Fold change vs veh, TMEM135 / RFU, DEPTOR / Fold change vs veh, DEPTOR / RFU, CPM / Fold change vs veh, CPM / RFU, DNAJB6 / Fold change vs veh, DNAJB6 / RFU, CACNA2D3 / Fold change vs veh, CACNA2D3 / RFU, DTX4 / Fold change vs veh, DTX4 / RFU, TFCP2 / Fold change vs veh, TFCP2 / RFU, GMCL1 /// GMCL1P1 / Fold change vs veh, GMCL1 /// GMCL1P1 / RFU, AEBP2 / Fold change vs veh, AEBP2 / RFU, SNHG1 /// SNORD22 /// SNORD25 /// SNORD26 /// SNORD27 /// SNORD28 /// SNORD29 /// SNORD31 / Fold change vs veh, SNHG1 /// SNORD22 /// SNORD25 /// SNORD26 /// SNORD27 /// SNORD28 /// SNORD29 /// SNORD31 / Fold change (Aza/veh), C12orf56 (ProbeSet 11735607_a_at) / Fold change (ACY-1035/veh), C12orf56 (ProbeSet 11735607_a_at) / Fold change (Aza/veh), FGFR1OP (ProbeSet 11751329_s_at) / Fold change (ACY-1035/veh), FGFR1OP (ProbeSet 11751329_s_at) / Fold change (Aza/veh), VPS36 (ProbeSet 11739960_a_at) / Fold change (ACY-1035/veh), VPS36 (ProbeSet 11739960_a_at) / RFU SYPL1 (11715823_x_at) / Fold change /veh SYPL1 (11715823_x_at) / RFU IGFBP7 (11715501_s_at) / Fold change /veh IGFBP7 (11715501_s_at) / RFU REEP3 (11722064_at) / Fold change /veh REEP3 (11722064_at) / RFU IGLL1 (11728026_x_at) / Fold change /veh IGLL1 (11728026_x_at): dose or concentration left out as unconfirmed
Settings: ProbeSet 11732370_a_at; LIST D

Nc1ccc(-c2cccs2)cc1NC(=O)c1ccc2c(c1)cc(C1CC1)n2CCN1CCOCC1 [ACY-1035]
Fold change vs veh, CUX1: 0.84
